We go through 49 compounds from PubChem BioAssay AID179 (DTP/NCI, 2004).

For orientation: EC50 means the concentration giving half of the maximal effect. The term IC50 denotes the point on the concentration scale where inhibition reaches its midpoint.

The structures appear in SMILES notation. The source made the active and inactive calls.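 The calls were made as follows: active = compounds giving half or more protection of infected cells from virus-caused growth loss, again on retest; inactive = the rest.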 Where a SMILES comes first, the peptide text is derived from it. [ ]: non-standard residue; d: D form. The star is where a group is joined. Phe(4-NO2) = N[CH](Cc1ccc([N+](=O)[O-])cc1)C(=O)O; Cbz = O=C(OCc1ccccc1)*

In this experiment the test system is CEM cells HIV-1 protection, formazan growth assay. The experiment is described as follows: NCI AIDS Antiviral Assay. As to conditions: for IC50: measured here: growth of uninfected CEM cells. The essentials: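 Human CEM cells, uninfected and HIV-1-infected, exposed to five drug concentrations; growth measured by soluble formazan assay and scored as percent protection from infection, with protecting compounds retested.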

Consider `Cc1cc(S(=O)(=O)Nc2nc(N)nc(N3CCOCC3)n2)c(S)cc1Cl`, for which the EC50 was 61.7 µM and the IC50 was > 200 µM.

As to `COC(=O)c1cc(CC2Cc3cc4c(cc3C2)CCC4)cc2c1CCC2`, the EC50 is > 200 µM and the IC50 is > 200 µM.

Take `CC(=O)NNC(=S)/N=C/C(C(=O)Nc1ccc([N+](=O)[O-])cc1)=C(\C)O`: the EC50 is 117 µM and the IC50 is 170 µM.

In the case of `CCn1c2cc(C)c(C)cc2nc2cc3c(cc21)c(Cl)c(=O)c1ccccc13`, the EC50 was > 200 µM and the IC50 was > 200 µM.

Take `N#CC(C#N)=C(N)/C(C#N)=C/c1cc(O)c(O)c(Br)c1`: the EC50 was > 77.6 µM and the IC50 was > 77.6 µM.

As for `COc1ccc(Cc2c(-c3ccc(C)cc3)n[nH]c(=O)c2C2C(=O)N(c3ccccc3)N=C2c2ccccc2)cc1` (stereo not drawn), the EC50 was > 200 µM and the IC50 was 38 µM.

In the case of `O=C(CC1(O)C(=O)Nc2ccccc21)c1ccncc1` (stereo not drawn), the result was inactive.

With `C[C@]12CC[C@@H]3c4cc(OCC(F)(F)F)c(O)cc4C(=O)C[C@H]3[C@@H]1CC[C@@H]2O`, the EC50 is > 200 µM and the IC50 turned out to be 3.02 µM.

Consider `CC(=O)OC[C@H]1OC(=O)C2O[C@H](c3ccccc3)OC21` (stereo partly drawn), for which the EC50 was > 200 µM and the IC50 is > 200 µM.

In the case of `CCOC(=O)C1(C(=O)OCC)CC1(C(=O)OCC)C(=O)OCC`, the outcome was inactive.

Consider `CCn1c(O)c(C=Nc2ccccc2)s/c1=N/Nc1nc(-c2ccccc2)cs1`, for which the EC50 is > 200 µM and the IC50 worked out at 24.5 µM.

`CC(C)(NC(=O)OCc1ccccc1)C(=O)NC(Cc1ccccc1)C(=O)O` (stereo not drawn) (HELM PEPTIDE1{[O=C(OCc1ccccc1)[*:2]].[Aib].[O=C(O)C(Cc1ccccc1)N[*:1]]}$$$$V2.0): the EC50 is > 200 µM and the IC50 is > 200 µM.

As for `Nc1c(S)cc(O)c2c1C(=O)c1ccccc1C2=O`, the EC50 is > 100 µM and the half-inhibitory concentration (IC50) was > 100 µM.

On to `C#CC1(O)CCC2C3CCC4=C(CCC(=O)C4)C3CCC21C` (stereo not drawn), for which the EC50 is 30.9 µM and the IC50 was determined as 166 µM.

Turning to `CC(C)C(NC(=O)c1ccccc1SC(=O)CCCC[n+]1ccccc1)C(N)=O` (stereo not drawn), the 50% effective concentration (EC50) was 1.05 µM and the IC50 was 8.71 µM.

Consider `Cc1ccc2c(c1)[nH]c1cc(C(F)(F)F)ccc1[p+]2=O` (stereo not drawn), for which the EC50 was > 200 µM and the concentration for half-maximal inhibition (IC50) is 26.3 µM.

On to `COC(=O)CSSCC(=O)OC`, for which the result was inactive.

Consider `Nc1nc(Cl)c(N=Nc2ccc(Cl)cc2)c(NCC2(CO)CCC2)n1`, for which the EC50 is > 200 µM and the half-maximal inhibitory concentration (IC50) is > 200 µM.

For `Nc1nc(N)nc(-c2cnccn2)n1`, the EC50 is > 200 µM and the IC50 was > 200 µM.

Turning to `O=C1c2ccccc2C(=O)N1n1c(Cc2ccccc2)n[nH]c1=O`, the EC50 was > 200 µM and the IC50 is > 200 µM.

As to `CCOC(=O)c1oc2cc(O)cc(O)c2c(=O)c1-c1ccc(OC)cc1`, the EC50 is > 200 µM and the IC50 is 21.9 µM.

As for `Nc1nc(-c2ccccc2)cc(-c2ccc(F)cc2)c1-c1ccc(Cl)cc1`, the EC50 was > 200 µM and the half-maximal inhibitory concentration (IC50) came out at 132 µM.

Take `Cc1ccc(S(=O)(=O)Oc2coc(CO)cc2=O)cc1`: the EC50 is > 200 µM and the concentration for half-maximal inhibition (IC50) came to 12.3 µM.

Regarding `O=C1CCCC2=C1CC1=C(CCCC1=O)N2c1ccccc1`, the EC50 was > 100 µM and the IC50 is > 100 µM.

For `CC(=O)/C=C/c1ccco1`, the EC50 was > 26.3 µM and the IC50 is > 26.3 µM.

With `C=CCSc1nn(CC=C)cc2ncnc1-2`, the EC50 was > 200 µM and the IC50 was > 200 µM.

On to `CN(C)C(=S)Oc1ccc2ccc(=O)oc2c1`, for which the EC50 is > 200 µM and the IC50 was > 200 µM.

As to `Cc1ccc(/C(C#N)=C/c2ccc(N(C)C)cc2)cc1`, the EC50 is > 200 µM and the IC50 came out at 1.29 µM.

As to `Cc1cc(C)nc(NS(=O)(=O)c2ccc(Nc3c4ccccc4nc4c(C(=O)NCCCN(CCO)CCO)cccc34)cc2)n1`, the EC50 is > 200 µM and the IC50 turned out to be 6.46 µM.

As to `CCC1=C(C(C)=O)[C@@H]2CCCCC[C@@H](C(=O)OC)C2C1=O` (stereo partly drawn), the EC50 was 191 µM and the half-maximal inhibitory concentration (IC50) was > 200 µM.

Take `Oc1ccc(C=NCC2CCCN3CCCCC23)cc1` (stereo not drawn): the EC50 is > 200 µM and the IC50 worked out at 33.1 µM.

Take `COc1cc2ccnc3c2c(c1OC)-c1ccccc1C3=O`: the outcome was inactive.

For the compound `CC(=O)NC(Cc1ccccc1)C(=S)N1CCCC1` (stereo not drawn), the EC50 was > 912 µM and the IC50 was found to be 776 µM.

Consider `CCCCCC=C(c1cc(Cl)c(O)c(C(=O)O)c1)c1cc(Cl)c(O)c(C(=O)O)c1`, for which the EC50 is > 95.5 µM and the IC50 was > 95.5 µM.

On to `N=C1C(=N)c2ccccc2-c2ccccc21.N=C1C(=N)c2ccccc2-c2ccccc21.[Cl-].[Rh+3].c1ccc(-c2ccccn2)nc1`, for which the result was inactive.

Take `COc1cccc2c(=O)oc(-c3ccc(C(C)(C)C)cc3)nc12`: the EC50 was > 200 µM and the IC50 stood at 64.6 µM.

Regarding `COc1cc(C(=O)Oc2c(C(C)=O)sc3c2c(=O)n(-c2ccccc2)c(=S)n3-c2ccccc2)cc(OC)c1OC`, the EC50 is > 200 µM and the IC50 came out at 1.1 µM.

Take `Cc1cc(=O)n2c(nc3cc(Cl)ccc32)s1`: the EC50 is > 28.8 µM and the IC50 was > 28.8 µM.

As to `COCCOCCOCCOCCOCCOCCOCCOCCOCCOCCOCCOCCOCCOCCOCCOCCOCC(=O)N(CCn1ccc(NC(c2ccccc2)(c2ccccc2)c2ccccc2)nc1=O)CCn1ccc(NC(c2ccccc2)(c2ccccc2)c2ccccc2)nc1=O`, the EC50 is 20 µM and the IC50 was 22.9 µM.

For `O=C(O)[C@@H]1CSC(c2ccncc2)N1` (stereo partly drawn), the EC50 is > 200 µM and the IC50 is > 200 µM.

Take `N#Cc1c(-c2ccc(Cl)cc2)c(C#N)c(=O)n(NS(=O)(=O)c2ccccc2)c1O`: the EC50 is > 200 µM and the 50% inhibitory concentration (IC50) is > 200 µM.

For `COc1cc2c3c(c1OC)-c1[nH]c4ccccc4c1C1CCCN(CC2)C31` (stereo not drawn), the EC50 is > 138 µM and the half-inhibitory concentration (IC50) was 15.1 µM.

For the compound `CC(C)=CCc1[nH]c2ccccc2c1C1=C(O)C(=O)C(c2c(CC=C(C)C)[nH]c3ccccc23)=C(O)C1=O`, the EC50 was > 200 µM and the half-inhibitory concentration (IC50) worked out at 1.74 µM.

`CCOC(=O)CCC(NC(=O)OCc1ccccc1)C(=O)NC(CCC(=O)OCC)C(=O)NC(Cc1ccc([N+](=O)[O-])cc1)C(=O)NC(CCC(=O)OCC)C(=O)NC(CCC(=O)OCC)C(=O)OCC` (stereo not drawn) (Cbz-E(OEt)E(OEt)[Phe(4-NO2)]E(OEt)E(OEt)-OEt; configuration not given here): the EC50 is > 200 µM and the 50% inhibitory concentration (IC50) is > 200 µM.

As to `[O-]c1c2c(nn1-c1ccc(Cl)cc1)c1ccccc1c[n+]2Cc1ccccc1`, the EC50 was > 5.13 µM and the IC50 was > 5.13 µM.

For `Cc1cc(-n2nnnc2-c2ccc([N+](=O)[O-])cc2)no1`, the EC50 was > 5.01 µM and the half-inhibitory concentration (IC50) was 4.37 µM.

For the compound `CCCCSc1nc2c(=O)[nH][nH]c(=O)c2n1Cc1ccccc1`, the EC50 was > 200 µM and the IC50 is 158 µM.

With `Cn1cnc(CCc2ccccc2)n1`, the EC50 was > 1120 µM and the IC50 was > 1120 µM.

`COC12C(COC(N)=O)C3=C(C(=O)C(C)=C(N4CCN(C)CC4)C3=O)N1CC1NC12` (stereo not drawn): the EC50 was > 200 µM and the IC50 stood at 110 µM.
